These results are taken from patent US20180318196A1, “COMPOSITION FOR PROTECTING THE SKIN AGAINST THE EFFECTS OF POLLUTION AND USE THEREOF” (LUBRIZOL ADVANCED MATERIALS, INC., priority 2015, published 2018).

The test has as its system Normal Human Epidermal Keratinocytes from adult (NHEK). In words: Protection from damage induced by Urban Dust, MTT cell viability assay. Format: cell-based. Here is the method: The capacity of protecting skin cell cultures from damage induced by Urban Dust (UD) is evaluated. The UD used is particulate matter (PMs, one of the major air pollutants with effects on the skin) collected in an urban area, Washington DC in 1976 and 1977, with an average particle size of 10.5 μm that contain polycyclic aromatic hydrocarbons (PAHs), polychlorinated biphenyl (PCBs), nitro-PAHs, chlorinated pesticides, dioxins and heavy metals: Damage is generated by the addition of UD to the culture medium and the protection effect from damage of the tested compounds is measured by a cell viability assay.
The viability is evaluated by MTT (3-[4,5-dimethylthiazol-2-yl]-2,5 diphenyl tetrazolium bromide), an absorbance-based cell viability method. Live cells present mitochondrial dehydrogenase activity that reduces the dye MTT to an insoluble blue colored product easily detected by absorbance, reflecting viable cells. […]
Then, cellular viability is evaluated. […] Then, plates are shaken for 5 minutes at room temperature protected from light and absorbance read at 570 nm with wavelength correction at 630 nm, using a Microplate Absorbance Reader (Clariostar®,BMG LabTech).
The percentage of cell viability for each condition is calculated with respect to control without pollutants (cells treated with medium alone and not treated with UD). […]
(Tetrazolium assays rely on reduction of a dye to a coloured formazan, in cell work by metabolically active cells.)

Like-named read-outs stand apart in the source and are kept apart here.

On to `COc1cc2c(cc1O)CCC(C)(C)O2` [LPCH, 7-methoxy-2,2-dimethylchroman-6-ol], for which the viability at 50 µg/mL is, setting by setting: (read-out: Relative Cell Viability with Respect To Control without pollutants (%) (MEAN ± SEM), 50 μg/mL LPCH + 50 μg/mL UD) 85.8 ± 3.68%; (read-out: Relative Cell Viability with Respect To Control without pollutants (%) (MEAN ± SEM), 50 μg/mL LPCH + 100 μg/mL UD) 79 ± 3.21%.
